One may read the IC50 as the point on the concentration scale where inhibition reaches its midpoint. As a reminder, the inhibition is the change of the read-out against control, counted positive when it falls. A higher inhibition goes with a strong effect.

Assay [1] relates to MDA-MB-468. Put plainly: Antiproliferative activity against human MDA-MB-468 cells assessed as reduction in cell viability by SRB assay. In general terms: Sulforhodamine B stains cellular protein and so reports cell mass.
Assay [2] has as its target T1, Proteasome Macropain subunit MB1 (Homo sapiens, UniProt P28074).
T1 sequence (P28074 whole entry): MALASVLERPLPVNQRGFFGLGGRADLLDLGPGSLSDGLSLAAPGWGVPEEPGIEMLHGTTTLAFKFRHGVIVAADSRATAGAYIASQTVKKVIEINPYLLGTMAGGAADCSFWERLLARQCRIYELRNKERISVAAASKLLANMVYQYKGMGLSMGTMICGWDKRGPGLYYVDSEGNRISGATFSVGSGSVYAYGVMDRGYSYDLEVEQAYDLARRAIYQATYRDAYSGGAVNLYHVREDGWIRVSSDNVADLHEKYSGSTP
Put plainly: Inhibition of human 20S proteasome beta 5.

Assay [3] concerns the target T2, Proteasome Macropain subunit MB1 (Homo sapiens) (UniProt P28074).
T2 sequence (whole entry): T1 sequence (P28074 whole entry)
Briefly: Inhibition of human 20S proteasome beta 5 at 10 uM relative to control.

Assay [4] is filed under the species Homo sapiens. Put plainly: Inhibition of human 20S proteasome beta 5i subunit at 10 microM relative to control.

As to `CC(C)N(Cc1nc(-c2cccs2)no1)C(=O)c1cc2ccccc2o1`, the values for the IC50 in assay [1] and in assay [2] were greater than 40 µM and 0.39 µM, respectively. The molecule `CC(C)N(Cc1cccc(-c2cccs2)c1)C(=O)c1cc2ccccc2o1` came in with an inhibition in assay [3] of less than 30%. Turning to `CC(C)N(Cc1nc(-c2cccnc2)no1)C(=O)COc1ccc(Oc2ccccc2)cc1`, the results for the IC50 in assay [1] and in assay [2] were 6.8 µM and 1.61 µM, respectively. `CCCc1ccc(OCC(=O)N(Cc2nc(-c3ccc4ccccc4c3)no2)C(C)C)cc1`: in assay [2], the midpoint of inhibition, the IC50, lay at 4.31 µM. In turn, `CC(C)N(Cc1cncc(-c2cncnc2)c1)C(=O)c1cc2ccccc2o1` returned an inhibition in assay [3] of less than 30%.

Take `CCCc1ccc(OCC(=O)N(Cc2nc(-c3cccs3)no2)C(C)C)cc1`: the values for the IC50 in assay [1] and in assay [2] were 27 µM and 0.18 µM, respectively. The molecule further came in with an inhibition in assay [4] of 25.3%. The molecule `CCCc1ccc(OCC(=O)N(Cc2cncc(-c3cccnc3)c2)C(C)C)cc1` showed an inhibition in assay [3] of less than 30%. As for `CCCc1ccc(OCC(=O)N(Cc2ccc(-c3cccs3)cc2)C(C)C)cc1`, 33.5 µM corresponded to half-maximal inhibition in assay [2] (IC50). Take `CCCc1ccc(OCC(=O)N(Cc2cccc(-c3cncnc3)c2)C(C)C)cc1`: the values for the IC50 in assay [1] and in assay [2] were 30.2 µM and 2.27 µM, respectively. In assay [3], `CC(C)N(Cc1nc(-c2ccc3ccccc3n2)no1)C(=O)c1cc2ccccc2o1` gave an inhibition of less than 30%. `CCCc1ccc(OCC(=O)N(Cc2cncc(-c3cncnc3)c2)C(C)C)cc1`: the inhibition in assay [3] is less than 30%. On to `CC(C)N(Cc1cccc(-c2cccnc2)c1)C(=O)c1cc2ccccc2o1`, for which inhibition in assay [2] was half-maximal at 20.2 µM (IC50).

`CC(C)N(Cc1cccc(-c2ccco2)c1)C(=O)c1ccc2ccccc2n1` had an IC50 in assay [2] of 61.6 µM. Regarding `CC(C)N(Cc1nc(-c2ccco2)no1)C(=O)c1cnc2ccccc2n1`, the inhibition in assay [3] is less than 30%. Turning to `CC(C)N(Cc1nc(-c2ccco2)no1)C(=O)COc1ccc(Oc2ccccc2)cc1`, in assay [2], the IC50 is 14.7 µM.

`CC(C)N(Cc1cncc(-c2cccnc2)c1)C(=O)c1cc2ccccc2o1`: in assay [3], the inhibition is less than 30%. For the molecule `CC(C)N(Cc1ccc(-c2cccnc2)cc1)C(=O)COc1ccc(Oc2ccccc2)cc1`, the IC50 in assay [1] was greater than 40 µM; in assay [2] it was 1.37 µM. `CCCc1ccc(OCC(=O)N(Cc2nc(-c3ccc4ccccc4n3)no2)C(C)C)cc1`: the IC50 was 35 µM in assay [1] and 0.88 µM in assay [2]. As to `CCCc1ccc(OCC(=O)N(Cc2nc(-c3cccnc3)no2)C(C)C)cc1`, the half-inhibitory concentration (IC50) in assay [1] worked out at 7.6 µM.

`CCCc1ccc(OCC(=O)N(Cc2cccc(-c3cccnc3)c2)C(C)C)cc1`: the IC50 in assay [1] was 19.3 µM; in assay [2] it was 1.08 µM. `CC(C)N(Cc1nc(-c2ccco2)no1)C(=O)c1ccc2ccccc2n1` yielded an inhibition in assay [3] of less than 30%. `CCCc1ccc(OCC(=O)N(Cc2cccc(-c3ccco3)c2)C(C)C)cc1` showed an IC50 in assay [2] of 10.7 µM.

In assay [2], `CCCc1ccc(OCC(=O)N(Cc2cccc(-c3cccs3)c2)C(C)C)cc1` came in with an IC50 of 9.45 µM. Consider `CC(C)N(Cc1nc(-c2ccco2)no1)C(=O)c1cc2ccccc2o1`, for which the IC50 in assay [1] is greater than 40 µM; in assay [2], 0.61 µM. Regarding `CC(C)N(Cc1cccc(-c2cncnc2)c1)C(=O)c1cc2ccccc2o1`, the inhibition in assay [3] is less than 30%. With `CCCc1ccc(OCC(=O)N(Cc2nc(-c3ccco3)no2)C(C)C)cc1`, the results for the IC50 in assay [1] and in assay [2] were 38.8 µM and 0.12 µM, respectively. Also, the inhibition in assay [4] stood at 7.3%. For the molecule `CC(C)N(Cc1nc(-c2ccc3ccccc3c2)no1)C(=O)c1cc2ccccc2o1`, the inhibition in assay [3] is less than 30%.

As to `CC(C)N(Cc1ccc(-c2cccs2)cc1)C(=O)COc1ccc(Oc2ccccc2)cc1`, the inhibition in assay [3] was less than 30%.

Turning to `CC(C)N(Cc1cccc(-c2cccs2)c1)C(=O)c1ccc2ccccc2n1`, the IC50 is 31.9 µM in assay [1] and 3.36 µM in assay [2].

For `CC(C)N(Cc1cccc(-c2ccco2)c1)C(=O)c1cc2ccccc2o1`, the IC50 in assay [2] amounted to 47.3 µM.

For `CCCc1ccc(OCC(=O)N(Cc2ccc(-c3cccnc3)cc2)C(C)C)cc1`, in assay [2], the IC50 was determined as 1.14 µM.

The record behind these values is ChEMBL document CHEMBL4665774, “Design, synthesis and biological evaluation of triaryl compounds as novel 20S proteasome inhibitors” (Bioorg Med Chem Lett, 2020).
